Reference: PubChem BioAssay AID330 (DTP/NCI, 2004)
Values joined by “and” are separate entries in the source; they are usually repeats but may differ in a detail not shown here. Equal values may be shown once. Inconclusive results and toxic doses are left out. The calls were made as follows: active = survival T/C of 150% or more; inactive = T/C below 125% in these data.

System: P388 leukemia ip, CD2F1 mice, survival T/C
Test: NCI In Vivo Anticancer Drug Screen. Data for tumor model P388 Leukemia (intraperitoneal) in CD2F1 (CDF1) mice
Conditions: endpoint: median survival time, higher = longer survival
Outline: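 Mice carrying the transplanted tumor received test compound or vehicle. Survival was recorded in each group, and the value is the treated-group measurement divided by that of the vehicle-treated control group.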

[1] = dose: 25.0 mg/kg/injection, schedule: Q01DX005 (ip), vehicle: saline with Tween-80
[2] = dose: 50.0 mg/kg/injection, schedule: Q01DX005 (ip), vehicle: saline with Tween-80
[3] = dose: 50.0 mg/kg/injection, schedule: Q01DX005 (ip), vehicle: Klucel (hydroxypropylcellulose) (HPC)
[4] = dose: 100.0 mg/kg/injection, schedule: Q01DX005 (ip), vehicle: Klucel (hydroxypropylcellulose) (HPC)
[5] = dose: 15.0 mg/kg/injection, schedule: Q01DX005 (ip), vehicle: saline with Tween-80
[6] = dose: 30.0 mg/kg/injection, schedule: Q01DX005 (ip), vehicle: saline with Tween-80
[7] = dose: 60.0 mg/kg/injection, schedule: Q01DX005 (ip), vehicle: saline with Tween-80
[8] = dose: 50.0 mg/kg/injection, schedule: Q01DX009 (ip), vehicle: saline with Tween-80
[9] = dose: 100.0 mg/kg/injection, schedule: Q01DX009 (ip), vehicle: saline with Tween-80
[10] = dose: 200.0 mg/kg/injection, schedule: Q01DX005 (ip), vehicle: Klucel (hydroxypropylcellulose) (HPC)
[11] = dose: 12.5 mg/kg/injection, schedule: Q01DX009 (ip), vehicle: Klucel (hydroxypropylcellulose) (HPC)
[12] = dose: 120.0 mg/kg/injection, schedule: Q01DX005 (ip), vehicle: saline with Tween-80

Measured: T/C

O=NNc1nccs1
inactive: dose: 1.56 mg/kg/injection, schedule: Q01DX009 (ip), vehicle: water 96 % of control | dose: 3.12 mg/kg/injection, schedule: Q01DX009 (ip), vehicle: water 100 % of control | dose: 6.25 mg/kg/injection, schedule: Q01DX009 (ip), vehicle: water 99 % of control | dose: 12.5 mg/kg/injection, schedule: Q01DX009 (ip), vehicle: water 97 % of control

CNC(=O)n1cc(Cl)ccc1=O
inactive: dose: 50.0 mg/kg/injection, schedule: Q01DX009 (ip), vehicle: saline 100 % of control and 108 % of control | dose: 100.0 mg/kg/injection, schedule: Q01DX009 (ip), vehicle: saline 100 % of control and 107 % of control | dose: 200.0 mg/kg/injection, schedule: Q01DX009 (ip), vehicle: saline 119 % of control

COc1ccc(C2c3cc4c(cc3OC(C)(OC)C2C)OCO4)cc1 (centres undefined)
inactive: dose: 6.25 mg/kg/injection, schedule: Q01DX005 (ip), vehicle: Klucel (hydroxypropylcellulose) (HPC) 95 % of control | dose: 12.5 mg/kg/injection, schedule: Q01DX005 (ip), vehicle: Klucel (hydroxypropylcellulose) (HPC) 87 % of control | dose: 25.0 mg/kg/injection, schedule: Q01DX005 (ip), vehicle: Klucel (hydroxypropylcellulose) (HPC) 87 % of control

CC(C)=CCC/C(C)=C/CSC#N
inactive: [1] 102 % of control | [2] 105 % of control | dose: 100.0 mg/kg/injection, schedule: Q01DX005 (ip), vehicle: saline with Tween-80 111 % of control | dose: 200.0 mg/kg/injection, schedule: Q01DX005 (ip), vehicle: saline with Tween-80 104 % of control

Fc1c(F)c(F)c(SN=S=Nc2ccccc2)c(F)c1F
inactive: [3] 106 % of control | [4] 108 % of control

COC(=O)C1=NC1c1ccc(C)cc1 (centres undefined)
inactive: dose: 100.0 mg/kg/injection, schedule: Q01DX001 (ip), vehicle: saline with Tween-80 104 % of control | dose: 200.0 mg/kg/injection, schedule: Q01DX001 (ip), vehicle: saline with Tween-80 110 % of control | dose: 400.0 mg/kg/injection, schedule: Q01DX001 (ip), vehicle: saline with Tween-80 100 % of control

N#Cc1c(=O)[nH]c(=O)n2c1[nH]c1ccccc12
inactive: [5] 102 % of control | [6] 104 % of control | [7] 105 % of control and 88 % of control

Cc1ccc(SC2=C(Sc3ccc(C)cc3)C(=O)c3ccccc3C2=O)cc1
inactive: dose: 25.0 mg/kg/injection, schedule: Q01DX009 (ip), vehicle: saline with Tween-80 102 % of control and 88 % of control | [8] 116 % of control and 96 % of control | [9] 99 % of control and 123 % of control

C(=C\c1ccccc1)/c1ccccc1
inactive: dose: 6.25 mg/kg/injection, schedule: Q01DX005 (ip), vehicle: saline 100 % of control | dose: 12.5 mg/kg/injection, schedule: Q01DX005 (ip), vehicle: saline 109 % of control | dose: 25.0 mg/kg/injection, schedule: Q01DX005 (ip), vehicle: saline 94 % of control

CC(=O)NCCc1ccc2c(c1)OCO2
inactive: dose: 25.0 mg/kg/injection, schedule: Q01DX001 (ip), vehicle: saline + alcohol 105 % of control | dose: 50.0 mg/kg/injection, schedule: Q01DX001 (ip), vehicle: saline + alcohol 99 % of control | dose: 100.0 mg/kg/injection, schedule: Q01DX001 (ip), vehicle: saline + alcohol 98 % of control

CCCCN(CCCC)CCCNc1c2c(nc3ccc(Cl)cc13)CCCC2
inactive: dose: 12.5 mg/kg/injection, schedule: Q01DX005 (ip), vehicle: saline with Tween-80 102 % of control | [1] 104 % of control | [2] 99 % of control and 101 % of control

O=Cc1ccc(C(Cl)(Cl)Cl)nc1
inactive: [8] 105 % of control | [9] 110 % of control | dose: 200.0 mg/kg/injection, schedule: Q01DX009 (ip), vehicle: saline with Tween-80 115 % of control

Cc1ccc2c(Nc3ccc(NS(C)(=O)=O)cc3)c3ccccc3nc2c1C
inactive: dose: 0.59 mg/kg/injection, schedule: Q01DX009 (ip), vehicle: saline with Tween-80 110 % of control | dose: 19.4 mg/kg/injection, schedule: Q04DX003 (ip), vehicle: water 123 % of control | dose: 300.0 mg/kg/injection, schedule: Q04DX003 (ip), vehicle: saline with Tween-80 86 % of control
active: dose: 5.0 mg/kg/injection, schedule: Q01DX009 (ip), vehicle: other 154 % of control | dose: 10.0 mg/kg/injection, schedule: Q01DX009 (ip), vehicle: other 165 % of control | dose: 20.0 mg/kg/injection, schedule: Q01DX009 (ip), vehicle: other 197 % of control | dose: 22.0 mg/kg/injection, schedule: Q04DX003 (ip), vehicle: saline with Tween-80 154 % of control | dose: 33.0 mg/kg/injection, schedule: Q04DX003 (ip), vehicle: saline with Tween-80 168 % of control | dose: 75.0 mg/kg/injection, schedule: Q04DX003 (ip), vehicle: saline with Tween-80 195 % of control and 218 % of control | dose: 90.0 mg/kg/injection, schedule: Q04DX003 (ip), vehicle: water 155 % of control | dose: 150.0 mg/kg/injection, schedule: Q04DX003 (ip), vehicle: saline with Tween-80 254 % of control

COC(=O)/C(C#N)=C/c1ccc2c(c1)OCO2
inactive: [3] 100 % of control | [4] 97 % of control | [10] 100 % of control

O=Nc1ccc(Cl)cc1
inactive: dose: 12.5 mg/kg/injection, schedule: Q04DX003 (ip), vehicle: Klucel (hydroxypropylcellulose) (HPC) 103 % of control | dose: 25.0 mg/kg/injection, schedule: Q04DX003 (ip), vehicle: Klucel (hydroxypropylcellulose) (HPC) 101 % of control | dose: 50.0 mg/kg/injection, schedule: Q04DX003 (ip), vehicle: Klucel (hydroxypropylcellulose) (HPC) 93 % of control

O=C(CSc1nc(-c2ccccc2)c(-c2ccccc2)o1)N1CCOCC1
inactive: [11] 105 % of control | dose: 25.0 mg/kg/injection, schedule: Q01DX009 (ip), vehicle: Klucel (hydroxypropylcellulose) (HPC) 105 % of control | dose: 50.0 mg/kg/injection, schedule: Q01DX009 (ip), vehicle: Klucel (hydroxypropylcellulose) (HPC) 106 % of control and 110 % of control | dose: 100.0 mg/kg/injection, schedule: Q01DX009 (ip), vehicle: Klucel (hydroxypropylcellulose) (HPC) 107 % of control and 120 % of control | dose: 200.0 mg/kg/injection, schedule: Q01DX009 (ip), vehicle: Klucel (hydroxypropylcellulose) (HPC) 110 % of control

NNS(=O)(=O)c1ccc2ccccc2c1
inactive: dose: 12.5 mg/kg/injection, schedule: Q01DX009 (ip), vehicle: other 102 % of control | dose: 25.0 mg/kg/injection, schedule: Q01DX009 (ip), vehicle: other 102 % of control and 86 % of control | dose: 50.0 mg/kg/injection, schedule: Q01DX009 (ip), vehicle: other 86 % of control | dose: 100.0 mg/kg/injection, schedule: Q01DX009 (ip), vehicle: other 102 % of control and 95 % of control | dose: 200.0 mg/kg/injection, schedule: Q01DX009 (ip), vehicle: other 101 % of control and 95 % of control

COC1=C(C)[C@@H]2CC(=O)O[C@@H]3C[C@H]4CCCC[C@]4(C)[C@@H](C1=O)[C@@]32C
inactive: [3] 95 % of control | [4] 92 % of control | [10] 93 % of control

O=C(O)/C(Cl)=C(\Cl)C(=O)Nc1ccc(Br)cc1
inactive: [5] 102 % of control | [6] 102 % of control | [7] 99 % of control and 111 % of control | [12] 104 % of control

COc1ccc(Nc2nc3c(s2)c(C)c(O)c2ccccc23)cc1
inactive: [7] 95 % of control | [12] 103 % of control | dose: 240.0 mg/kg/injection, schedule: Q01DX005 (ip), vehicle: saline with Tween-80 112 % of control

CCCCCCc1cc(C(=O)NN)c2ccccc2n1
inactive: [3] 102 % of control | [4] 99 % of control | [10] 96 % of control

Cc1cccc(C2=NCCN2)c1C
inactive: dose: 5.0 mg/kg/injection, schedule: Q04DX003 (ip), vehicle: saline with Tween-80 100 % of control | dose: 10.0 mg/kg/injection, schedule: Q04DX003 (ip), vehicle: saline with Tween-80 100 % of control | dose: 20.0 mg/kg/injection, schedule: Q04DX003 (ip), vehicle: saline with Tween-80 100 % of control

O=[N+]([O-])c1ccccc1-c1ccc2c(O)c(Cl)c(Cl)c(O)c2n1
inactive: dose: 100.0 mg/kg/injection, schedule: Q04DX003 (ip), vehicle: Klucel (hydroxypropylcellulose) (HPC) 104 % of control

CCSc1nc2ccc(N3C(=O)C=CC3=O)cc2s1
inactive: dose: 3.12 mg/kg/injection, schedule: Q01DX009 (ip), vehicle: Klucel (hydroxypropylcellulose) (HPC) 111 % of control | dose: 6.25 mg/kg/injection, schedule: Q01DX009 (ip), vehicle: Klucel (hydroxypropylcellulose) (HPC) 119 % of control | [11] 115 % of control
